Data on 4 compounds can be found in US20240058321A1, “FARNESYL-TRANSFERASE INHIBITORS AND KRAS INHIBITORS FOR TREATING KRAS MUTANT CANCERS” (SEMMELWEIS EGYETEM, priority 2021, published 2024).

The structures appear in SMILES notation. Read-outs that look alike come from different tables or passages of the source.

The term viability denotes a per cent measure of how many cells are alive, often set against a control. As usually defined, the IC50 is the midpoint of a concentration-inhibition curve. High values mean lower potency, low ones higher potency.

Data set [1] deals with PF906. Put plainly: 2D combinational test (SRB growth inhibition, six days). The data set is classed as cell-based, human. The text has this:
(§1) OD values were normalized to control. […] Data shown are results of three independent experiments.

Data set [2] concerns SW1990. The data set is described as above. Type of data set: cell-based, human. To be noted: for Relative cell viability (MEAN): SW1990; for viability at 0.1 µM / viability at 0.5 µM / viability at 1 µM: Homo sapiens, SW1990, SW1990, read-out: Relative cell viability (MEAN).
Description: as §1

Data set [3] deals with H838 KRAS G12D. The data set is described as above. The data set is classed as cell-based, human.
Description: as §1

In data set [4] the test system is SNUC2B. The description is as above. The data set is classed as cell-based, human.
Description: as §1

The subject of data set [5] is SW480. Described as above. Type of data set: cell-based, human.
Description: as §1

Data set [6] deals with HCT116. Described as above. Type of data set: cell-based, human.
Description: as §1

In data set [7] the test system is A549. The data set is described as above. The data set is classed as cell-based, human.
Description: as §1

Data set [8] deals with H358. The description is as above. To be noted: concentration range of 1-20 μM, data not shown.
Data set [9] relates to SW1573. The data set is described as above.
Description: H358, SW1573, H1792, MIAPACA2, SW1990, SNUC2B, SW480, A549 and HCT116 were purchased from ATCC, while SW48 KRAS G12C colorectal cell line and H838 KRAS G12D lung cell line was bought from Horizon Discovery Ltd. Most of the cell lines were heterozygous for mutant KRAS, as in human cases used to occur, but we also used cell lines with homozygous mutant KRAS.
Cells were cultured in DMEM (Lonza, Switzerland; with 4500 mg/dm3 glucose, pyruvate and L-glutamine) supplemented with 10% fetal calf serum (EuroClone) and 1% penicillin-streptomycin-amphotericin (Lonza) in tissue culture flasks in a humidified 5% CO2 atmosphere at 37° C.
For in vitro experiments drugs were dissolved in DMSO in 10 mM stock concentration and stored at −80° C.
Cells that reached 70-80% confluency were trypsinized and counted using Luna II Automated Cell Counter. Cells were plated in 5000-10000 cells/well density (depending on the growth rate of the given cell line) on a 24 well plate. Next day the medium was replaced to fresh medium supplemented with the inhibitors. After 6 days, the wells were washed with DPBS (Lonza) and the cells were fixed by 10% trichloroacetic acid and stained with Sulphorodamine-B (SRB) (Sigma) dye for 15 minutes. Plates then were repeatedly washed with 1% acetic acid to remove excess dye. Protein-bound SRB was then dissolved in 10 mM Tris buffer (pH=7,4) and OD was measured at 570 nm using a microplate reader (EL800, BioTec Instruments, Winooski, VT). OD values were normalized to control. Transformed data then were used to calculate combinational index (CI) values using Compusyn software as described in https://www.combosyn.com/index.html. Data shown are results of three independent experiments.
Data set [10] concerns SW1573. Put plainly: siRNA knockdown experiment (SRB, IC50). Type of data set: cell-based, human. To be noted: Homo sapiens, SW1573, 144 h, 6-day-long treatment. How it is done: Cells were plated in 2500 and 7500 cells/well density (for non-targeting siRNA and HRAS siRNA treatment, respectively) on a 48we11 plate supplemented with pre-mixed Lipofectamine RNAIMAX Reagent (Thermo Fisher) and OptiMEM (Thermo Fisher) containing 2.5 pmol/well non-targeting or HRAS siRNA according to the manufacturer's instruction (reverse transfection protocol). […] On the 3rd day of the treatment, cells were supplemented with fresh pre-mixed 2.5 pmol/well siRNA diluted in Lipofectamine RNAiMAX Reagent and Optimem according to the manufacturer's instruction. […] OD values were normalized to control, and IC50 values were calculated from transformed data using GraphPad PRISM 5 software.

Data set [11] concerns SW1573 xenografts. Put plainly: In vivo tumor growth of subcutaneous xenografts. Also noted: species or system female SCID mice. To be noted: AMG510 25 mg/kg i.p. and/or tipifarnib 40 mg/kg i.p., (day 1 = 1). The procedure:
(§2) H358 and SW1573 human lung adenocarcinoma cells (5×10^6 and 1×10^6, respectively) were subcutaneously injected in female SCID mice. Cells were injected in 200 μl DMEM:Matrigel mixture (ratio 1:1) based on preliminary experiments. When tumor reached approximately 100 mm^3 (H358 7 days, SW1573 26 days after injection), animals were randomized and treated intraperitoneally daily except for weekends. Drugs were dissolved in 60% DPBS, 34% PEG300, 5% DMSO and 1% Tween80. […] Controls received vehicle. Doses were determined based on previous literature, roughly using half of the used per os doses. The subcutaneous tumors were measured with a caliper and tumor volumes were calculated with the formula […] and expressed in mm^3. H358 experiment was terminated after 18 days and SW1573 after 25 days treatment. Tumors were measured upon harvest, then fixed with 4% PFA for histological analyses.
(§3) Animals were the properties of the Department of Experimental Pharmacology, National Institute of Oncology, H-1122, Budapest, Hungary. All experiments were carried out in accordance with the Guidelines for Animal Experiments and were approved for the Department of Experimental Pharmacology in the National Institute of Oncology, Budapest, Hungary.

For data set [12], the system named is H358 xenografts. Put plainly: In vivo tumor growth of subcutaneous xenografts. Also noted: species or system female SCID mice. To be noted: AMG510 5 mg/kg i.p. and/or tipifarnib 40 mg/kg i.p., (day 1 = 1). The procedure: as §2, §3
[13] abbreviates: 0 nM tipifarnib + 25 nM MRTX1133.
The mark [14] stands for this setting: 0 nM tipifarnib + 125 nM MRTX1133.
Where [15] appears, read: 0 nM tipifarnib + 625 nM MRTX1133.
The mark [16] stands for this setting: group mean, in g (unit assumed).

`C#Cc1c(F)ccc2cc(O)cc(-c3ncc4c(N5CC6CCC(C5)N6)nc(OC[C@@]56CCCN5C[C@H](F)C6)nc4c3F)c12` [MRTX1133]: the “Relative cell viability (MEAN)” value in data set [1] (setting [13]) is on record as 0.716; in data set [1] (setting [14]), 0.625; in data set [1] (setting [15]), 0.574; in data set [2] (0 nM lonafarnib + 2.5 nM MRTX1133) it was 0.848; in [2] (0 nM lonafarnib + 5 nM MRTX1133), 0.7005; in data set [2] (0 nM lonafarnib + 10 nM MRTX1133) it was 0.5543. Moreover, the “Relative cell viability (MEAN)” value in data set [2] (0 nM tipifarnib + 2.5 nM MRTX1133) is 0.7355; in data set [2] (0 nM tipifarnib + 5 nM MRTX1133) it was 0.5922; in data set [2] (0 nM tipifarnib + 10 nM MRTX1133), 0.4549; in [3] (setting [13]), 0.8997; in data set [3] (setting [14]), 0.7955; in [3] (setting [15]) it was 0.6909. For the same compound, the “Relative cell viability (MEAN)” value worked out at 0.739 in data set [4] (0 nM tipifarnib + 50 nM MRTX1133), 0.7023 in data set [4] (0 nM tipifarnib + 100 nM MRTX1133) and 0.6567 in data set [4] (0 nM tipifarnib + 500 nM MRTX1133).
As for `Cn1cnc(Cn2ccc3ccc(CNCc4[nH]c5ccccc5c4[C@H]4NC(=O)c5ccc(O)cc54)cc32)c1` [BI2852], the “Relative cell viability (MEAN)” value in [5] (0 nM lonafarnib + 15 μM BI2852) is on record as 0.8064; in data set [5] (0 nM lonafarnib + 20 μM BI2852), 0.6712; in data set [5] (0 nM lonafarnib + 30 μM BI2852), 0.3888; in data set [5] (0 nM tipifarnib + 5 μM BI2852), 0.9312; in data set [5] (0 nM tipifarnib + 10 μM BI2852), 0.7461; in [5] (0 nM tipifarnib + 15 μM BI2852), 0.5371. For the same compound, the “Relative cell viability (MEAN)” value stood at 0.846 in data set [6] (0 nM TIPIFARNIB + 10 μM BI2852); 0.7086 in [6] (0 nM TIPIFARNIB + 20 μM BI2852); 0.5907 in [6] (0 nM TIPIFARNIB + 30 μM BI2852); 0.9541 in data set [7] (0 nM TIPIFARNIB + 20 μM BI2852); 0.8484 in data set [7] (0 nM TIPIFARNIB + 30 μM BI2852); 0.7576 in data set [7] (0 nM TIPIFARNIB + 40 μM BI2852). The “Relative cell viability (MEAN)” value is on record as 0.9287 in data set [2] (0 nM tipifarnib + 10 μM BI2852); 0.8554 in data set [2] (0 nM tipifarnib + 20 μM BI2852); 0.8187 in data set [2] (0 nM tipifarnib + 30 μM BI2852); 0.8372 in data set [4] (0 nM tipifarnib + 10 μM BI2852); 0.7477 in data set [4] (0 nM tipifarnib + 20 μM BI2852); 0.664 in data set [4] (0 nM tipifarnib + 30 μM BI2852).
Regarding `Cc1nc[nH]c1CN1CCN(C(=O)N[C@@H](CC(C)C)C(=O)O)[C@@H](Cc2ccccc2)C1=O` [GGTI-2418], the “Effect on tumor cell proliferation (in words)” value was “ineffective” in [8] and “ineffective” in data set [9] (SW1573, concentration range of 1-20 μM, data not shown).
As for `Cn1cncc1[C@@](N)(c1ccc(Cl)cc1)c1ccc2c(c1)c(-c1cccc(Cl)c1)cc(=O)n2C` [tipifarnib], the viability at 0.1 µM in [2] (100 nM tipifarnib + 0 μM BI2852) came to 75.6%; in data set [2] (100 nM tipifarnib + 0 nM MRTX1133), 80.2%; in [9] (Homo sapiens, SW1573, read-out: Relative cell viability (MEAN), SW1573, 100 nM tipifarnib + 0 μM BI2852) it was 29.2%. Further, the figures for the viability at 0.5 µM in data set [2] (500 nM tipifarnib + 0 μM BI2852) and in data set [2] (500 nM tipifarnib + 0 nM MRTX1133) were 67% and 70.3%, respectively. The viability at 1 µM stood at 55% in data set [2] (1000 nM tipifarnib + 0 μM BI2852) and 63.4% in data set [2] (1000 nM tipifarnib + 0 nM MRTX1133). Moreover, the IC50 in [10] (Cont (non-targeting) siRNA) is 4.56 nM; in [10] (HRAS siRNA), 10.5 nM. Also, the viability at 0.025 µM in [9] (Homo sapiens, SW1573, read-out: Relative cell viability (MEAN), SW1573, 25 nM tipifarnib + 0 μM BI2852) was determined as 41.4%. Moreover, in data set [9] (Homo sapiens, SW1573, read-out: Relative cell viability (MEAN), SW1573, 50 nM tipifarnib + 0 μM BI2852), the viability at 0.05 µM was found to be 35.4%. Besides, the “Weights of the tumors at the end of the experiment” value in data set [11] (animal 1, in g (unit assumed)) is 0.5323; in data set [11] (animal 2, in g (unit assumed)) it was 0.2277; in [11] (animal 3, in g (unit assumed)) it was 0.3143; in data set [11] (animal 5, in g (unit assumed)) it was 0.2239; in data set [11] (animal 6, in g (unit assumed)) it was 0.2604; in data set [11] (animal 7, in g (unit assumed)), 1.2243. The “Weights of the tumors at the end of the experiment” value is recorded as 0.182 in data set [12] (animal 1, in g (unit assumed)); 1.599 in [12] (animal 2, in g (unit assumed)); 1.023 in [12] (animal 3, in g (unit assumed)); 0.223 in data set [12] (animal 4, in g (unit assumed)); 0.225 in data set [12] (animal 5, in g (unit assumed)); 0.205 in [12] (animal 6, in g (unit assumed)). For the same compound, the “Weights of the tumors at the end of the experiment” value in data set [12] (animal 7, in g (unit assumed)) was 0.239. Moreover, the “Weights of the tumors at the end of the experiment, MEAN” value in data set [11] (setting [16]) is listed as 0.4638; in [12] (setting [16]), 0.528.
